Test results as given in US7476764B2, “Phenylcarboxyamides as beta-secretase inhibitors” (Bristol-Myers Squibb Company, priority 2005, dated 2009).
Counter-ions that a name gives are not always drawn.

Target: T1, BACE1 enzyme (Homo sapiens, UniProt P56817)
T1 construct: The HEK293-9B.A1 cell line, which overexpresses the BACE1 enzyme, was derived from HEK293 cells; endogenous in cells; washed 48,000 x g pellet of the cell homogenate
Assay: Radioligand displacement assay with a radiolabeled BACE inhibitor on HEK293-9B.A1 cell homogenate
Type: binding
Conditions: displacement of 1 nM tritiated radioligand, HEK293-9B.A1 homogenate, pH 5.0, 1.5 hr at 25° C.; read-out: Activity Rating (activity based on IC50 values)
Protocol: Radioligand displacement assays with a radiolabeled BACE inhibitor (WO 2004 013098, compound 3, where the methoxy group is substituted for C(^3H)3) were carried out using standard methods (Keen, M. (1999) in Receptor Binding Techniques (Walker, J. M. ed) p. 106 Humana Press, Totowa, N.J.). The HEK293-9B.A1 cell line, which overexpresses the BACE1 enzyme, was derived from HEK293 cells (Simmons, N. L. (1990) A cultured human renal epitheloid cell line responsive to vasoactive intestinal peptide. Exp. Physiol. 75:309-19.) by RAGE™ (Harrington, J. J. et al. (2001) Creation of genome-wide protein expression libraries using random activation of gene expression. Nat. Biotechnol. 19:440-5; U.S. Pat. Nos. 6,410,266 and 6,361,972). T225 flask cultures of HEK293-9B.A1 were grown to 80% confluency in DMEM supplemented with 2 mM L-glutamine, 10 μg/ml penicillin, 10 μg/ml streptomycin, 3 μg/ml puromycin, 100 nM methotrexate, and 10% fetal bovine serum (Invitrogen, Carlsbad, Calif.), harvested, and resuspended at 2×10^8 cells per 10 ml of lysis buffer consisting of 50 mM HEPES pH 7.0 containing a protease inhibitor cocktail of AEBSF 104 μM, aprotinin 80 nM, leupeptin 2 μM, bestatin 4 μM, pepstatin A 1.5 μM, and E-64 1.4 μM (0.1% of protease inhibitor cocktail P8340, Sigma-Aldrich, St. Louis, Mo.) at 4° C. The resuspended cells were homogenized using a Polytron (Brinkman, Westbury, N.Y.) at setting 6 for 10 sec., then centrifuged at 48,000×g for 10 min. The resulting pellet was washed by repeating the resuspension, homogenization and centrifugation steps. The final pellet was resuspended in buffer at 4° C. to yield a total protein concentration of 5 mg/ml, then aliquots were frozen in liquid nitrogen for further storage at −70° C. Immediately before carrying out a binding assay, an aliquot of cell homogenate was thawed and diluted to a concentration of 100 μg/ml in assay buffer consisting of 50 mM HEPES pH 5.0 and 0.1% CHAPSO. Assays were initiated in polypropylene 96-well plates (Costar, Cambridge, Mass.) by the addition of 200 μl of cell homogenate to 50 μl of assay buffer containing 1 nM radioligand (WO 2004 013098, compound 3, where the methoxy group is substituted for C(^3H)3: 80 Ci/mMol) and various concentrations of unlabelled compounds, and incubated for 1.5 hr. at 25° C. Separation of bound from free radioligand was by filtration on GFF glass fiber filters (Innotech Biosystems International, Lansing, Mich.) using an Innotech cell harvester.

T1 sequence (P56817 46-501): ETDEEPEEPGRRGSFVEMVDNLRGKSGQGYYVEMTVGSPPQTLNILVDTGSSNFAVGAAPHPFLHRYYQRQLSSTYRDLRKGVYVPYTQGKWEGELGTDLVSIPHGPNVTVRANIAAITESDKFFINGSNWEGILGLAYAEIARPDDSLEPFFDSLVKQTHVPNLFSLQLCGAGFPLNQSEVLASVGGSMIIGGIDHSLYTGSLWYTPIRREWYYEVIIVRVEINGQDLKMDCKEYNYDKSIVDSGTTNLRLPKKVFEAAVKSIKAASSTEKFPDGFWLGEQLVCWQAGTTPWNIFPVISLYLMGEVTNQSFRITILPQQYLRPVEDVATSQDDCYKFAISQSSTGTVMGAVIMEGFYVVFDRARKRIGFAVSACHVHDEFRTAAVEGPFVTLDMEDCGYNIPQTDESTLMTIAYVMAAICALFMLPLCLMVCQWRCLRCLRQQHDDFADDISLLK

CCCO/N=C(\C)c1cc(C(=O)N[C@@H](Cc2cc(F)cc(F)c2)[C@H](O)CNCc2cccc(OC)c2)cc(S(C)(=O)=O)c1 [Example 19, N-((2S,3R)-4-(3-methoxybenzylamino)-1-(3,5-difluorophenyl)-3-hydroxybutan-2-yl)-3-(methylsulfonyl)-5-((E)-1-(propoxyimino)ethyl)benzamide TFA salt]
IC50: 100 to 1000 nM

COc1cccc(CNC[C@@H](O)[C@H](Cc2cc(F)cc(F)c2)NC(=O)c2cc(/C(C)=N/OCC(C)C)cc(S(C)(=O)=O)c2)c1 [Example 20, N-((2S,3R)-4-(3-methoxybenzylamino)-1-(3,5-difluorophenyl)-3-hydroxybutan-2-yl)-3-((E)-1-(isobutoxyimino)ethyl)-5-(methylsulfonyl)benzamide TFA salt]
IC50: > 1000 nM

C=CCO/N=C(\C)c1cc(C(=O)N[C@@H](Cc2cc(F)cc(F)c2)[C@H](O)CNCc2cccc(OC)c2)cc(S(C)(=O)=O)c1 [Example 21, N-((2S,3R)-4-(3-methoxybenzylamino)-1-(3,5-difluorophenyl)-3-hydroxybutan-2-yl)-3-((E)-1-(allyloxyimino)ethyl)-5-(methylsulfonyl)benzamide TFA salt]
IC50: 100 to 1000 nM

COc1cccc(CNC[C@@H](O)[C@H](Cc2cc(F)cc(F)c2)NC(=O)c2cc(C(C)=O)cc(N3CCCCS3(=O)=O)c2)c1 [Example 22, N-[(1S,2R)-1-(3,5-difluoro-benzyl)-2-hydroxy-3-(3-methoxy-benzylamino)-propyl]-3-(1,1-dioxo-1λ^6-[1,2]thiazinan-2-yl)-5-acetyl-benzamide TFA salt]
IC50: < 100 nM

COc1cccc(CNC[C@@H](O)[C@H](Cc2cc(F)cc(F)c2)NC(=O)c2cc(C(C)O)cc(N3CCCCS3(=O)=O)c2)c1 (stereo partly drawn) [Example 23, N-[(1S,2R)-1-(3,5-difluoro-benzyl)-2-hydroxy-3-(3-methoxy-benzylamino)-propyl]-3-(1,1-dioxo-1λ^6-[1,2]thiazinan-2-yl)-5-(1-hydroxy-ethyl)-benzamide TFA salt]
IC50: < 100 nM

CO/N=C(\C)c1cc(C(=O)N[C@@H](Cc2cc(F)cc(F)c2)[C@H](O)CNCc2cccc(OC)c2)cc(N2CCCCS2(=O)=O)c1 [Example 24, N-[(1S,2R)-1-(3,5-difluoro-benzyl)-2-hydroxy-3-(3-methoxy-benzylamino)-propyl]-3-(1,1-dioxo-1λ^6-[1,2]thiazinan-2-yl)-5-{1-[(E)-methoxyimino]-ethyl}-benzamide TFA salt]
IC50: < 100 nM

COc1cccc(CNC[C@@H](O)[C@H](Cc2cc(F)cc(F)c2)NC(=O)c2cc(/C(C)=N/OCc3ccccc3)cc(N3CCCCS3(=O)=O)c2)c1 [Example 25, N-[(1S,2R)-1-(3,5-difluoro-benzyl)-2-hydroxy-3-(3-methoxy-benzylamino)-propyl]-3-(1,1-dioxo-1λ^6-[1,2]thiazinan-2-yl)-5-{1-[(E)-benzyloxyimino]-ethyl}-benzamide TFA salt]
IC50: < 100 nM

CCCO/N=C(\C)c1cc(C(=O)N[C@@H](Cc2cc(F)cc(F)c2)[C@H](O)CNCc2cccc(OC)c2)cc(N2CCCCS2(=O)=O)c1 [Example 26, N-[(1S,2R)-1-(3,5-difluoro-benzyl)-2-hydroxy-3-(3-methoxy-benzylamino)-propyl]-3-(1,1-dioxo-1λ^6-[1,2]thiazinan-2-yl)-5-{1-[(E)-propoxyimino]-ethyl}-benzamide TFA salt]
IC50: < 100 nM

COc1cccc(CNC[C@@H](O)[C@H](Cc2cc(F)cc(F)c2)NC(=O)c2cc(/C(C)=N/OCC(C)C)cc(N3CCCCS3(=O)=O)c2)c1 [Example 27, N-[(1S,2R)-1-(3,5-difluoro-benzyl)-2-hydroxy-3-(3-methoxy-benzylamino)-propyl]-3-(1,1-dioxo-1λ^6-[1,2]thiazinan-2-yl)-5-{1-[(E)-isobutoxyimino]-ethyl}-benzamide TFA salt]
IC50: 100 to 1000 nM

C=CCO/N=C(\C)c1cc(C(=O)N[C@@H](Cc2cc(F)cc(F)c2)[C@H](O)CNCc2cccc(OC)c2)cc(N2CCCCS2(=O)=O)c1 [Example 28, N-[(1S,2R)-1-(3,5-difluoro-benzyl)-2-hydroxy-3-(3-methoxy-benzylamino)-propyl]-3-(1,1-dioxo-1λ^6-[1,2]thiazinan-2-yl)-5-{1-[(E)-allyloxyimino]-ethyl}-benzamide TFA salt]
IC50: < 100 nM

COc1cccc(CNC[C@@H](O)[C@H](Cc2cc(F)cc(F)c2)NC(=O)c2cc(C(C)=O)cc(N(C)S(C)(=O)=O)c2)c1 [Example 29, N-((2S,3R)-4-(3-methoxybenzylamino)-1-(3,5-difluorophenyl)-3-hydroxybutan-2-yl)-3-acetyl-5-(N-methylmethan-2-ylsulfonamido)benzamide TFA salt]
IC50: 100 to 1000 nM

CO/N=C(\C)c1cc(C(=O)N[C@@H](Cc2cc(F)cc(F)c2)[C@H](O)CNCc2cccc(OC)c2)cc(N(C)S(C)(=O)=O)c1 [Example 30, N-((2S,3R)-4-(3-methoxybenzylamino)-1-(3,5-difluorophenyl)-3-hydroxybutan-2-yl)-3-((E)-1-(methoxyimino)ethyl)-5-(N-methylmethan-2-ylsulfonamido)benzamide TFA salt]
IC50: < 100 nM

COc1cccc(CNC[C@@H](O)[C@H](Cc2cc(F)cc(F)c2)NC(=O)c2cc(/C(C)=N/OCc3ccccc3)cc(N(C)S(C)(=O)=O)c2)c1 [Example 31, N-((2S,3R)-4-(3-methoxybenzylamino)-1-(3,5-difluorophenyl)-3-hydroxybutan-2-yl)-3-((E)-1-(benzyloxyimino)ethyl)-5-(N-methylmethan-2-ylsulfonamido)benzamide TFA salt]
IC50: < 100 nM

CCCO/N=C(\C)c1cc(C(=O)N[C@@H](Cc2cc(F)cc(F)c2)[C@H](O)CNCc2cccc(OC)c2)cc(N(C)S(C)(=O)=O)c1 [Example 32, N-((2S,3R)-4-(3-methoxybenzylamino)-1-(3,5-difluorophenyl)-3-hydroxybutan-2-yl)-3-((E)-1-(propoxyimino)ethyl)-5-(N-methylmethan-2-ylsulfonamido)benzamide TFA salt]
IC50: 100 to 1000 nM

COc1cccc(CNC[C@@H](O)[C@H](Cc2cc(F)cc(F)c2)NC(=O)c2cc(/C(C)=N/OCC(C)C)cc(N(C)S(C)(=O)=O)c2)c1 [Example 33, N-((2S,3R)-4-(3-methoxybenzylamino)-1-(3,5-difluorophenyl)-3-hydroxybutan-2-yl)-3-((E)-1-(isobutoxyimino)ethyl)-5-(N-methylmethan-2-ylsulfonamido)benzamide TFA salt]
IC50: 100 to 1000 nM

C=CCO/N=C(\C)c1cc(C(=O)N[C@@H](Cc2cc(F)cc(F)c2)[C@H](O)CNCc2cccc(OC)c2)cc(N(C)S(C)(=O)=O)c1 [Example 34, N-((2S,3R)-4-(3-methoxybenzylamino)-1-(3,5-difluorophenyl)-3-hydroxybutan-2-yl)-3-((E)-1-(allyloxyimino)ethyl)-5-(N-methylmethan-2-ylsulfonamido)benzamide TFA salt]
IC50: < 100 nM

COc1cccc(CNC[C@@H](O)[C@H](Cc2cc(F)cc(F)c2)NC(=O)c2cc(C(C)O)cc(N(C)S(C)(=O)=O)c2)c1 (stereo partly drawn) [Example 35, N-((2S,3R)-4-(3-methoxybenzylamino)-1-(3,5-difluorophenyl)-3-hydroxybutan-2-yl)-3-(1-hydroxyethyl)-5-(N-methylmethan-2-ylsulfonamido)benzamide TFA salt]
IC50: < 100 nM

COc1cccc(CNC[C@@H](O)[C@H](Cc2cc(F)cc(F)c2)NC(=O)c2cc(C(C)=O)cc(N(c3ccccc3)S(C)(=O)=O)c2)c1 [Example 36, N-((2S,3R)-4-(3-methoxybenzylamino)-1-(3,5-difluorophenyl)-3-hydroxybutan-2-yl)-3-acetyl-5-(N-phenylmethan-10-ylsulfonamido)benzamide TFA salt]
IC50: < 100 nM

COc1cccc(CNC[C@@H](O)[C@H](Cc2cc(F)cc(F)c2)NC(=O)c2cc(/C(C)=N/O)cc(N(c3ccccc3)S(C)(=O)=O)c2)c1 [Example 37, N-((2S,3R)-4-(3-methoxybenzylamino)-1-(3,5-difluorophenyl)-3-hydroxybutan-2-yl)-3-((E)-1-(hydroxyimino)ethyl)-5-(N-phenylmethan-10-ylsulfonamido)benzamide]
IC50: < 100 nM
